Read-outs that look alike come from different tables or passages of the source.
Tests used:
PXR (NR1I2) [1] = biological target: T1, PXR (NR1I2) (Homo sapiens, UniProt O75469); experiment: ATG_PXRE_CIS: Factorial reporter gene assay (HepG2); assay type: cell-based; design: endogenous in cells; host or cells: HepG2; details: HepG2
T1 sequence (O75469 1-434): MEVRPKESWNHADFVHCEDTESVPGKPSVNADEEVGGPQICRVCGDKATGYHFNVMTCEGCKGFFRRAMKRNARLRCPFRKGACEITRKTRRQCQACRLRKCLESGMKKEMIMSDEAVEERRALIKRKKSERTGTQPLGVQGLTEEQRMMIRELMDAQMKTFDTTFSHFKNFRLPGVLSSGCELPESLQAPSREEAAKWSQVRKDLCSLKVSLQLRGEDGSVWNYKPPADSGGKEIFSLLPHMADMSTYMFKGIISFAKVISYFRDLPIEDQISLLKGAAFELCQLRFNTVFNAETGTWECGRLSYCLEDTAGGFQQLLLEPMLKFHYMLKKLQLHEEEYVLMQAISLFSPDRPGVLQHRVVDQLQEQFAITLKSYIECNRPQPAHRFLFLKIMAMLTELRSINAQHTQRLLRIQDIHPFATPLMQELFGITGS
Outline: (§1)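 Mammalian one-hybrid trans reporters (25 MRTUs) measured ERRg, FXR and PPARg; PXRE used cis reporters from a 48-site MRTU library. Both were run in HepG2. Dosing: seven concentrations, MTC as the highest, three-fold dilution series.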

Mouse Liver [2] = details: ref ToxRefDB, cited from earlier work
Rat Liver [3] = details: ref ToxRefDB, cited from earlier work
CYP1A1 = experiment: CLZD_CYP1A1: Change in expression of CYP1A1 (primary human hepatocytes); assay type: cell-based; details: 24 hr
Outline: (§2)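 Read-out: mRNA change by multiplexed quantitative nuclease protection assay. Primary human hepatocytes; 5 concentrations, 0.004-40 µM; exposures 6, 24, 48 hr.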

Rat Liver [4] = details: ref ToxRefDB, cited from earlier work; remark: listed apart in the source
CYP2B6 = experiment: CLZD_CYP2B6: Change in expression of CYP2B6 (primary human hepatocytes); assay type: cell-based; details: 24 hr
Outline: as §2

Rat Liver [5] = details: ref ToxRefDB, cited from earlier work; remark: listed apart in the source
ABCB1 = experiment: CLZD_ABCB1: Change in expression of ABCB1 (primary human hepatocytes); assay type: cell-based; details: 24 hr
Experimental: This is a collection of multiplexed gene expression assays focused on Phase I and II xenobiotic metabolizing enzymes and transporters. Human primary cell cultures were treated with chemicals at 5 concentrations (0.004-40 [drawing 42] M) for 6, 24 and 48 hr. Concentration- and time-response profiles of chemicals were measured by the expression of key nuclear receptor target genes, activities of CYP1A enzymes (EROD), and cell morphology. Fourteen gene targets were monitored by quantitative nuclease protection assay including: six representative cytochrome P-450 genes, four hepatic transporters, three Phase II conjugating enzymes, and one endogenous metabolism gene involved in cholesterol synthesis. The target genes associated with nuclear receptor pathways are as follows: [drawing 43] and [drawing 44] with [drawing 45]; [drawing 46] , [drawing 47] , [drawing 48] , [drawing 49] , [drawing 50] and [drawing 51] with [drawing 52]; [drawing 53] , [drawing 54] , [drawing 55] and [drawing 56] with [drawing 57]; [drawing 58] with [drawing 59]; and [drawing 60] with [drawing 61] . Assays were run in primary human hepatocyte cultures by CellzDirect Invitrogen Inc. (Durham, NC), in collaboration with EPA.
Multiplexed Gene Expression in Human Primary Hepatocytes: This is a collection of multiplexed gene expression assays focused on Phase I and II metabolic enzymes and transporters. […] Fourteen gene targets were monitored by quantitative nuclease protection assay: six representative cytochrome P450 genes, four hepatic transporters, three Phase II conjugating enzymes, and one endogenous metabolism gene involved in cholesterol synthesis. Cells were exposed at 5 concentrations (0.004-40 µM) for 6, 24 or 48 hr. Gene targets are sentinels for five nuclear receptor signaling pathways: AhR, CAR, PXR, FXR, and PPARα. All gene are associated with nuclear receptor pathways: CYP1A1 and CYP1A2 with AHR; ABCB1, ABCG2, CYP2B6, CYP2C9, CYP2C19 and UGT1A1 with CAR; CYP3A4, GSTA2, SLCO1B1 and SULT2A1 with PXR; HMGCS2 with PPARA; and ABCB11 with FXR. […] Detailed description of the methods, data and analysis methods for this dataset will be presented in a separate publication.

CYP1A2 = experiment: CLZD_CYP1A2: Change in expression of CYP1A2 (primary human hepatocytes); assay type: cell-based; details: 24 hr
Outline: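 Five-point concentration series (0.004-40 µM) applied to primary human hepatocytes; 6/24/48 hr timepoints; transcript quantified by multiplexed nuclease protection.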

CYP3A4 = experiment: CLZD_CYP3A4: Change in expression of CYP3A4 (primary human hepatocytes); assay type: cell-based; details: 24 hr
Outline: as §2

Mouse Liver [6] = details: chronic mouse study, liver; ref ToxRefDB; cited from earlier work
[7] = biological target: T2, PPARG (peroxisome proliferator-activated receptor gamma) (Homo sapiens, UniProt P37231); experiment: ATG_PPARg_TRANS: Factorial reporter gene assay (HepG2); assay type: cell-based; details: HepG2
T2 construct: expressed in transfected cells; host or cells: HepG2
T2 sequence (P37231 1-505): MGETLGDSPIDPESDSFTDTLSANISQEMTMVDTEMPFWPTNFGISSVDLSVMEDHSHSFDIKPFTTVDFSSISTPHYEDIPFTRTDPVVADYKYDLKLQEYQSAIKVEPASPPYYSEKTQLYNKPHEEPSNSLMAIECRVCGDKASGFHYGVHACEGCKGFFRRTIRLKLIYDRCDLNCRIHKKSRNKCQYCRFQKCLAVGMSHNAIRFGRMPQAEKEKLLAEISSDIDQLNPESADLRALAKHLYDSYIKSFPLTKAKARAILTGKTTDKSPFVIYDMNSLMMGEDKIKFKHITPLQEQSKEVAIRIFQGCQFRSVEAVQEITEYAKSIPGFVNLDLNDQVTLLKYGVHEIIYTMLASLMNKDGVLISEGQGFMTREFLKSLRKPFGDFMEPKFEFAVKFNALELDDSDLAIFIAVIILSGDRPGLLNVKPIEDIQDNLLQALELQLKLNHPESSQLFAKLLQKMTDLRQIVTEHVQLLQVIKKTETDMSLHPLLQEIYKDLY
Outline: as §1

Mouse Liver [8] = details: chronic mouse study, liver; ref ToxRefDB; cited from earlier work; remark: listed apart in the source
[9] = biological target: T3, ESR1 (estrogen receptor 1) (Homo sapiens, UniProt P03372); experiment: ATG_ERa_TRANS: Factorial reporter gene assay (HepG2); assay type: cell-based; details: HepG2
T3 construct: expressed in transfected cells; host or cells: HepG2
Experimental: A multiple reporter transcription unit (MRTU) library consisting of 48 transcription factor binding sites was transfected into the HepG2 human liver hepatoma cell line. In addition to the cis-acting reporter genes (CIS), a modification of the approach was used to generate a trans-system (TRANS) with a mammalian one-hybrid assay consisting of an additional 25 MRTU library reporting the activity of nuclear receptor super-family members. […] These assays were performed by Attagene Inc. (Morrisville NC) under contract to EPA.
In addition to the cis-acting reporter genes (CIS), a modification of the approach was used to generate a trans-system (TRANS) with a mammalian one-hybrid assay consisting of an additional 25 MRTU library reporting the activity of nuclear receptor super-family members. […] Chemicals were then tested in the CIS and TRANS assays at seven concentrations starting at the MTC and followed by three-fold serial dilutions. These assays were performed by Attagene Inc. (Morrisville NC) under contract to EPA. Detailed description of the methods, data and analysis methods for this dataset will be presented in a separate publication.

PXR (NR1I2) [10] = biological target: T1, PXR (NR1I2); experiment: ATG_PXR_TRANS: Factorial reporter gene assay (HepG2); assay type: cell-based; design: endogenous in cells; host or cells: HepG2; details: HepG2
Outline: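 HepG2 cells transfected with multiplexed reporter libraries: cis-acting binding-site reporters (CIS) and a one-hybrid nuclear-receptor trans system (TRANS). Chemicals tested at seven concentrations, starting at the maximum tolerated concentration with three-fold serial dilutions.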

PXR (NR1I2) [11] = biological target: T1, PXR (NR1I2); experiment: NVS_NR_hPXR: Human PXR Fluormone PXR (SXR) green (cell-free HTS); assay type: binding
Outline: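 Responses were normalized to same-plate solvent controls as percent of neutral control. AC50 values came from Hill-equation fits of concentration-response curves.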

T3 sequence (P03372 whole entry): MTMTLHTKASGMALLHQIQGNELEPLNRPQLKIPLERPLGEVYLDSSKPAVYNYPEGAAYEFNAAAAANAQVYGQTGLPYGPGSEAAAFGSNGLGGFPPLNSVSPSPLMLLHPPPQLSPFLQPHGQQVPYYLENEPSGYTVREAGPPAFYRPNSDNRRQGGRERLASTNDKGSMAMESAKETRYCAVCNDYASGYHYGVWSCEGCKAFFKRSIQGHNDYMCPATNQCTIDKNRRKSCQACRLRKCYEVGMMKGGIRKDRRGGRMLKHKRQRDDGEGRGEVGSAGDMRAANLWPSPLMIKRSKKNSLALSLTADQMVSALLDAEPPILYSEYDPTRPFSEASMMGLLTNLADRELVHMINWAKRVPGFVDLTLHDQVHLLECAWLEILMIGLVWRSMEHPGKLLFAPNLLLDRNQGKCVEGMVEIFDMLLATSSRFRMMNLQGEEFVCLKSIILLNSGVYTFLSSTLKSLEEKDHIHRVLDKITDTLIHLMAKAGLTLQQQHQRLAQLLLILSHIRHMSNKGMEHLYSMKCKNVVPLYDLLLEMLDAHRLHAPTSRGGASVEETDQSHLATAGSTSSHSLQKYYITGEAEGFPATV

CC(C)(C)[C@H](O)[C@H](Cc1ccc(Cl)cc1)n1cncn1 [r235]
ATG_PXRE_CIS (PXR (NR1I2) [1]): 4.824 | CHR_Mouse_Liver_1_AnyLesion (Mouse Liver [2]; mouse, chronic study): 6 | CHR_Rat_Liver_1_AnyLesion (Rat Liver [3]; rat, chronic study): 6 | CLZD_CYP1A1_24 (CYP1A1): 5.242 | CHR_Rat_Liver_3_NeoplasticLesion (Rat Liver [4]; rat, chronic study): 0 | CLZD_CYP2B6_24 (CYP2B6): 5.403 | CHR_Rat_Liver_2_PreneoplasticLesion (Rat Liver [5]; rat, chronic study): 0 | CLZD_ABCB1_24 (ABCB1): 5.316

CCCCC(CC)CN1C(=O)C2C3C=CC(C3)C2C1=O (centres unmarked) [row 212]
ATG_PXRE_CIS (PXR (NR1I2) [1]): 5.06 | CHR_Mouse_Liver_1_AnyLesion (Mouse Liver [2]; chronic mouse study, liver): 6 | CHR_Rat_Liver_1_AnyLesion (Rat Liver [3]; chronic rat study, liver): 6 | CLZD_CYP1A2_24 (CYP1A2): 5.284 | CLZD_CYP1A1_24 (CYP1A1): 4.883 | CHR_Rat_Liver_3_NeoplasticLesion (Rat Liver [4]; chronic rat study, liver): 0 | CLZD_CYP3A4_24 (CYP3A4): 4.752 | CHR_Mouse_Liver_3_NeoplasticLesion (Mouse Liver [6]): 6 | ATG_PPARg_TRANS [7]: 4.284 | CLZD_CYP2B6_24 (CYP2B6): 5.005 | CHR_Mouse_Liver_2_PreneoplasticLesion (Mouse Liver [8]): 6 | CHR_Rat_Liver_2_PreneoplasticLesion (Rat Liver [5]; chronic rat study, liver): 6 | ATG_ERa_TRANS [9]: 4.328 | ATG_PXR_TRANS (PXR (NR1I2) [10]): 4.745 | NVS_NR_hPXR (PXR (NR1I2) [11]): 4.582
